Assay results taken from ChEMBL document CHEMBL3988442, “University of Dundee, Small-Polar-MMV Screening Library” (2021).

Columns and labels:
[1] = microbe, parasite or virus in culture; conditions: Mycobacterium tuberculosis, 72 h, read-out: pIC50 (converted)
[2] = microbe, parasite or virus in culture; conditions: Mycobacterium tuberculosis, 96 h, read-out: pIC50 (converted)

Compound | IC50 [1] | IC50 [2]
Cc1cc(-c2noc(C(C)N)n2)ccc1F (configuration not stated) | 457 µM | > 501 µM
CC(C)N1CC2(CCCN(Cc3noc(C4CCCC4)n3)C2)CCC1=O (configuration not stated) | > 50.1 µM | > 50.1 µM
NCCc1ccc2cc[nH]c2c1 | 212 µM | > 501 µM
CCC(N)C(=O)Nc1ccc2c(c1)C(=O)CCC2 (configuration not stated) | 163 µM | 137 µM
CS(=O)(=O)NCC1CCCN(c2ncc(Cl)cc2F)C1 (configuration not stated) | 159 µM | > 501 µM
CCCS(=O)(=O)NCCOc1ccc(C#N)cc1 | 220 µM | 291 µM
CCC(C)Oc1cc(C(=O)NCC2(O)CCC2)ccn1 (configuration not stated) | 62.8 µM | 29.6 µM
CSCCC1c2nc[nH]c2CCN1Cc1[nH]c2ccc(F)cc2c1C (configuration not stated) | > 50.1 µM | > 50.1 µM
Cc1nonc1NC(=O)CCn1cc(Br)ccc1=O | > 50.1 µM | > 50.1 µM
FC(F)Sc1ccc(NCc2nnc(C3CC3)o2)cc1 | 11.8 µM | 46.7 µM
Cc1csc(NC(=O)CNC(=O)c2cccs2)n1 | 185 µM | > 501 µM
O=C(CCNCCO)c1ccccc1 | 137 µM | > 501 µM
Cc1ccoc1C(=O)N1CCC(n2cc(-c3ccsc3)nn2)CC1 | > 50.1 µM | > 50.1 µM
CCNc1nnc(SCc2ncccc2C)s1 | 96.1 µM | 58 µM
Cc1ccoc1C(=O)N(C)Cc1nc(C(C)C)no1 | > 501 µM | 179 µM
CCCc1nc(N2CCCC(C)C2)c2c(n1)c(C)nn2CC (configuration not stated) | 24.2 µM | > 50.1 µM
CCc1nnc(NC(=O)N(CCOC)Cc2ccc(C)o2)s1 | > 50.1 µM | > 50.1 µM
CCc1noc(CNc2cc3c(cc2Cl)OCCCO3)n1 | > 50.1 µM | > 50.1 µM
CCC1(CO)CCCN(CCn2cc(Cl)cn2)C1 (configuration not stated) | 138 µM | 144 µM
O=C(NC1CCCOc2ccccc21)c1ccncc1 (configuration not stated) | > 501 µM | > 501 µM
CCOCC(O)CSc1nccn1-c1cccc(F)c1 (configuration not stated) | 189 µM | 290 µM
COC(=O)CSc1nc(N)c2ccsc2n1 | 250 µM | > 501 µM

Compound | IC50 [1] | IC50 [2]
COc1ccc(NS(=O)(=O)N(C)C)c(Br)c1 | > 501 µM | > 501 µM
C=C(C)CN1CCC(NC(=O)N2CCSCC2)CC1 | > 501 µM | > 501 µM
O=S1(=O)CCCN1CCNc1ncc(Cl)cc1Cl | 111 µM | > 501 µM
O=C(NCCO)c1cc2c(F)cc(Br)cc2[nH]1 | 257 µM | > 501 µM
CN(Cc1cnccn1)S(=O)(=O)c1ccc(C(F)(F)F)nc1 | > 50.1 µM | > 50.1 µM
CC(C)NC(=O)Nc1cccc(S(=O)(=O)C(F)F)c1 | 264 µM | 219 µM
Cc1ccc(-n2nnnc2NC2CC2)cc1 | 263 µM | > 501 µM
CC(C)OCCS(=O)(=O)N(C)Cc1ccco1 | 110 µM | 104 µM
O=C(CCn1cccc1)NCc1ccco1 | 96 µM | > 501 µM
O=C(c1ccc(F)cc1)N1C[C@H]2CCC[C@@]2(COCc2ccncc2)C1 | > 50.1 µM | > 50.1 µM
CCNC(=O)C1CCCN(c2ccncc2Cl)C1 (configuration not stated) | 129 µM | 281 µM
CN(C)CCC(=O)c1ccc(F)cc1 | 92.2 µM | 177 µM
Cc1cc(C)n(CC(=O)NCc2ccc(F)cc2)n1 | 216 µM | > 501 µM
Cn1nc(CCN)c2ccccc21 | 57.8 µM | 197 µM
O=C(NCc1ccc(CO)cc1)C1CCOc2ccccc2C1 (configuration not stated) | > 50.1 µM | 12.2 µM
Cn1c(-c2ccccc2Cl)nc2cc(C(=O)NC(CO)CO)cnc21 | > 50.1 µM | > 50.1 µM
O=C1N(Cc2ccccc2)CCN1S(=O)(=O)Cl | 259 µM | 248 µM
OC[C@@H]1CCCN1Cc1cccc(F)c1F | > 501 µM | > 501 µM
CC(C)Sc1nnc(-c2cccnc2)o1 | 8.8 µM | 219 µM
O=C1N(Cc2ccc(F)c(F)c2)CCCC12CCN(C1CCCCC1)C2 (configuration not stated) | 15.1 µM | 26.3 µM
CCOC(C)c1nc(Cn2cccn2)cs1 (configuration not stated) | > 50.1 µM | > 50.1 µM
CC(C)c1cccc(S(=O)(=O)NCCN)c1 | 219 µM | > 501 µM

Compound | IC50 [1] | IC50 [2]
CCCNC(=O)CNc1cc(F)c(OC)c(F)c1 | 166 µM | 326 µM
CN(C)c1ccc(Br)c(S(=O)(=O)NC2CCNC2)c1 (configuration not stated) | 232 µM | 263 µM
CN(CC(C)(CO)CO)c1ncc(Cl)cc1Cl | 122 µM | 301 µM
COc1ncccc1C(=O)NCCc1cccs1 | 347 µM | 285 µM
Cc1cc(CN(C)CC2(O)CCCN(CCC3CCCCC3)C2=O)no1 (configuration not stated) | > 50.1 µM | > 50.1 µM
CCOC(=O)c1ccccc1N1C(=O)C=CC1=O | 60.4 µM | 83.7 µM
CC(CNC(=O)c1ccc(Cl)cn1)Cn1ccnc1 (configuration not stated) | 159 µM | 176 µM
c1ccc(-c2cc(CN3C[C@@H]4CC[C@H](C3)N(CC3CC3)C4)on2)cc1 | 24.3 µM | 24.8 µM
O=C(CO)N1CCCC(CCc2ccccc2F)C1 (configuration not stated) | 196 µM | 142 µM
O=C1NCC(C(=O)NCCCc2ccc(Cl)cc2)N1 (configuration not stated) | > 501 µM | > 501 µM
NCCS(=O)(=O)N1CCc2ccccc21 | 149 µM | 240 µM
CS(=O)(=O)Nc1cccc(C(=O)Nc2ccccc2)c1 | 130 µM | 267 µM
CN(C)CCCN1CC2(CCN(C3CCCOC3)CC2)OC1=O (configuration not stated) | > 50.1 µM | > 50.1 µM
COC(=O)[C@@H]1C[C@@H](O)CN1Cc1ncc(C(C)(C)C)o1 | > 501 µM | > 501 µM
Fc1ccc2nc(N3CCCNCC3)oc2c1F | 51.6 µM | 122 µM
COc1cccc(CNc2nc(C)no2)c1 | 180 µM | > 501 µM
O=C(Nc1ccnc(CO)c1)c1ccc(F)cc1I | 367 µM | 433 µM
O=C(Nc1ccccn1)C1Cc2ccccc2O1 (configuration not stated) | 268 µM | 277 µM
COc1ccc(N2CCCNCC2)cc1 | 308 µM | 276 µM
OCCCC(Nc1ccccn1)c1ccccc1 (configuration not stated) | 109 µM | 111 µM
CCCNC(=O)c1cc(C(C)C)on1 | 9.31 µM | 44.3 µM
COc1ccc(CN2CCCNCC2)cc1 | 258 µM | 163 µM

Compound | IC50 [1] | IC50 [2]
Cc1cnn(CC2CN(Cc3nc4ccccc4s3)CCO2)c1 (configuration not stated) | 34.7 µM | 14.7 µM
Cc1nnc(SCCN)s1 | > 501 µM | > 501 µM
CC(C)C(=O)N1CCC(C(=O)c2ccc(O)cc2)CC1 | 5.6 µM | > 501 µM
Nc1nnnn1NCc1cccc(Cl)c1Cl | > 50.1 µM | > 50.1 µM
NCc1cnn(-c2ccc(Br)cc2)c1 | 147 µM | 196 µM
Cc1nc(NC(C)C)nc2c1CN(Cc1cccs1)CC2 | > 50.1 µM | 27 µM
CCc1ncc(-c2cn(CCSc3ncn[nH]3)nn2)cn1 | > 50.1 µM | > 50.1 µM
COc1ccc(C(=O)NCc2ncnn2C)cc1Br | 326 µM | > 501 µM
CC(C)COc1cncc(NC(C)CO)n1 (configuration not stated) | > 501 µM | > 501 µM
O=C(c1cccs1)N1CC(Oc2ccccc2Cl)C1 | 26.7 µM | 42.8 µM
COc1c(C(=O)N2CCOCC2)sc2ccc(F)cc12 | 305 µM | 284 µM
CN(C)C(=O)CCCn1nnc(-c2ccsc2)n1 | 89.8 µM | 155 µM
Cc1nnc(SCCC(=O)N(C)Cc2ccc(F)cc2F)[nH]1 | > 50.1 µM | > 50.1 µM
CCn1ccc(C(=O)NCc2ccco2)n1 | 232 µM | > 501 µM
CS(=O)(=O)Cc1ccccc1NCc1ccsc1 | 220 µM | > 501 µM
CC1CCN(C(CN)c2cccs2)CC1 (configuration not stated) | 217 µM | 263 µM
CC(C)c1ccc(C(N)CNS(C)(=O)=O)cc1 (configuration not stated) | 202 µM | 268 µM
CN(Cc1ccco1)C(=O)c1cc(C2CC2)[nH]n1 | 107 µM | 59.3 µM
CCc1nc(C)c(C(=O)NCC2CCS(=O)(=O)CC2)o1 | > 501 µM | > 501 µM
CN(Cc1ccco1)CC(O)COCc1cccs1 (configuration not stated) | 235 µM | 188 µM
COc1cccc(CN(C)C(=O)CSc2ccc3c(c2)OCCO3)c1 | > 50.1 µM | 25 µM
O=C(NC1CCCN(CCCc2ccccc2)C1)c1ccc(Cl)s1 (configuration not stated) | 33.6 µM | 24.4 µM

Compound | IC50 [1] | IC50 [2]
O=C(Cn1cnnn1)NCC1(c2ccccc2)CCC1 | 304 µM | > 501 µM
Cc1ccc(CN(Cc2ccncc2)C2CCN(C)CC2)s1 | > 50.1 µM | > 50.1 µM
COc1cc(CCN)ccc1C | 303 µM | 277 µM
CCc1nc2n(n1)CC(NCc1nc(C)c(C)o1)CC2 (configuration not stated) | > 50.1 µM | > 50.1 µM
CCc1nc(C2CCCN(C(=O)c3ccccc3Cl)C2)no1 (configuration not stated) | 23.9 µM | > 50.1 µM
CC(C)c1ccc2c(c1)C(N)C(=O)N2 (configuration not stated) | > 501 µM | > 501 µM
CN1CCC(CNC(=O)c2cccc(C(F)(F)F)c2)c2ccccc21 (configuration not stated) | 45.5 µM | > 50.1 µM
N#Cc1nc(NCCSCCCO)ccc1Cl | 221 µM | 418 µM
CCc1n[nH]c(SCC(=O)Nc2ccc(Br)cn2)n1 | 144 µM | 186 µM
CCOCCC(=O)N(C)Cc1cc(C(C)C)no1 | 169 µM | 372 µM
CN(Cc1ccccc1)CC1(O)CCCN(CCC2CCCCC2)C1=O (configuration not stated) | > 50.1 µM | > 50.1 µM
Cn1c(SCCCO)nnc1-c1ccccc1F | 275 µM | 279 µM
CCN1CCN(Cc2nc(-c3ccccc3)no2)CC1 | > 501 µM | > 501 µM
COc1cccc(Nc2ccc(N)nc2)c1 | 128 µM | 241 µM
CN(C)CCN1CCOCC2(C1)CN(Cc1ccsc1)CCO2 (configuration not stated) | > 50.1 µM | > 50.1 µM
CCOc1ccc(CNS(=O)(=O)N(C)C)cc1C | 262 µM | > 501 µM
CCN1CC(c2nc3ccccc3[nH]2)CC1=O (configuration not stated) | 250 µM | 260 µM
Cn1ncc2c(N3CCCN4CCC[C@H]4C3)nc(C(C)(C)C)nc21 | > 50.1 µM | 47 µM
